Assay results published in US6048852A, “β-thiopropionyl-aminoacid derivatives and their use as β-lactamase inhibitors” (SmithKline Beecham p.l.c., priority 1996, dated 2000).
Like-named read-outs stand apart in the source and are kept apart here.

Assays:
[1] = target: B. fragilis CfiA metallo-β-lactamase (Bacteroides fragilis, UniProt P25910); assay: I50 screen, nitrocefin reporter substrate, CfiA metallo-β-lactamase; assay type: biochemical; conditions: 25 mM PIPES pH 7, 37° C., nitrocefin 91 μM, 5 minute preincubation, Zn2+ 100 μM; enumerated Examples; read-out: I50 values against B. fragilis CfiA metallo-β-lactamase
Sequence of B. fragilis CfiA metallo-β-lactamase (P25910 19-249): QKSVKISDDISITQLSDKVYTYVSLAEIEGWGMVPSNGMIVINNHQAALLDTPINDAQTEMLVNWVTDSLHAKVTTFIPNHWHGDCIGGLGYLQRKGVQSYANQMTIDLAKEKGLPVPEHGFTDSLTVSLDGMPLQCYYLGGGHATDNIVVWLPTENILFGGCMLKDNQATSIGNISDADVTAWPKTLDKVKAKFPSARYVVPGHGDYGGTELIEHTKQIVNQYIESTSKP
Procedure: The inhibitory activity of the compounds of the invention was measured in 25 mM PIPES pH 7 buffer at 10 concentrations (1000, 333, 111, 37, 12.3, 4.1, 1.4, 0.46, 0.15 and 0.05 μM) at 37° C. using nitrocefin (91 μM final concentration) as the reporter substrate. The assays were performed with a 5 minute preincubation of enzyme and inhibitor and were conducted in the presence of added zinc sulphate (Zn^2+ 100 μM, final concentration). the methodology is described in detail in the following references: Payne et al (1991), J. Antimicrob. Chemother., 28:255; Payne et al (1994), Antimicrob. Agents and Chemother., 38:767.

[2] = system: Bacteroides fragis 262 strain, which produces CfiA metallo-β-lactamase; assay: Antibacterial activity (MIC) in combination with meropenem; assay type: cell-based, Bacteroides fragilis
Excerpt: Antibacterial activity of compounds of the invention in combination with the carbapenem antibiotic, meropenem, against the Bacteroides fragis 262 strain, which produces CfiA metallo-β-lactamase:
[MIC=minimum inhibitory concentration (μg/ml)]

[3] = read-out: MIC (μg/ml) of compound alone

For O=C(O)c1ccc(CCC(CS)C(=O)N[C@@H](C(=O)O)c2ccccc2)cc1 (single isomer, unassigned) [46 (Isomer A), N-[2'-(Mercaptomethyl)-4'-(4"-hydroxycarbonyl)phenylbutanoyl]-D-phenylglycine], the IC50 [1] was under 1000 nM.
In the case of O=C(N[C@@H](C(=O)O)c1ccccc1)C(CS)CCc1ccc2nc(C(F)(F)F)ccc2c1 (single isomer, unassigned) [47 (Isomer B), N-[2'-(Mercaptomethyl)-4'-(2"-trifluoromethylquinolin-6"-yl)butanoyl]-D-phenylglycine], the IC50 [1] is reported as under 1000 nM.
For CC(S)C(Cc1ccccc1)C(=O)N[C@@H](C(=O)O)c1ccccc1 (single isomer, unassigned) [Example 50 (Isomer B), N-[2'-Benzyl-3'-mercaptobutanoyl]-D-phenylglycine], the IC50 [1] was under 1000 nM.
CC(S)C(Cc1ccccc1)C(=O)N[C@@H](C(=O)O)c1ccccc1 (single isomer, unassigned) [Example 50 (Isomer C), N-[2'-Benzyl-3'-mercaptobutanoyl]-D-phenylglycine] was tested, and the IC50 [1] was under 1000 nM.
CC(S)C(Cc1ccccc1)C(=O)N[C@@H](C(=O)O)c1ccccc1 (single isomer, unassigned) [Example 50 (all isomers), N-[2'-Benzyl-3'-mercaptobutanoyl]-D-phenylglycine] gave an MIC [2, 3] of over 128 µg/mL.
For O=C(N[C@@H](Cc1c[nH]c2ccccc12)C(=O)O)C(CS)Cc1ccccc1 (stereo partly drawn) [5d), N-[2'-Benzyl-3'-mercaptopropionyl]tryptophan], the IC50 [1] was under 1000 nM.
Compound O=C(N[C@H](Cc1c[nH]c2ccccc12)C(=O)O)C(CS)Cc1ccccc1 (stereo partly drawn) [5e), N-[2'-Benzyl-3'-mercaptopropionyl]-D-tryptophan] has an IC50 [1] of under 1000 nM.
O=C(N[C@@H](C(=O)O)c1ccccc1)[C@@H](CS)Cc1ccccc1 [9i), [2'S]-N-[2'-Benzyl-3'-mercaptopropionyl]-D-phenylglycine] gave an IC50 [1] of under 1000 nM.
Compound O=C(N[C@@H](C(=O)O)c1ccccc1)[C@@H](CS)CCc1ccccc1 [37f), N-[(S)-2'-Mercaptomethyl-4'-phenylbutanoyl]-D-phenylglycine] has an IC50 [1] of under 1000 nM and an MIC [2, 3] of over 128 µg/mL.
O=C(N[C@@H](C(=O)O)c1ccccc1)[C@@H](CS)CCCc1ccccc1 [38f), N-[(S)-2'-Mercaptomethyl-5'-phenylpentanoyl]-D-phenylglycine] gave an IC50 [1] of under 1000 nM and an MIC [2, 3] of over 128 µg/mL.
In the case of O=C(N[C@@H](C(=O)O)c1ccccc1)[C@@H](CS)CCCCCc1ccccc1 [40f), N-[(S)-2'-Mercaptomethyl-7'-phenylheptanoyl]-D-phenylglycine], the IC50 [1] is reported as under 1000 nM.
For O=C(NC(C(=O)O)c1ccccc1)C(CS)Cc1ccccc1 (stereo not drawn) [Example 9e), N-[2'-Benzyl-3'-mercaptopropionyl]phenylglycine], the IC50 [1] was under 1000 nM.
Work on O=C(N[C@@H](C(=O)O)c1ccccc1)C(CS)Cc1ccccc1 (stereo partly drawn) [Example 9k), N-[2'-Benzyl-3'-mercaptopropionyl]-D-phenylglycine] yielded an IC50 [1] of under 1000 nM and an MIC [2, 3] of over 128 µg/mL.
O=C(N[C@@H](C(=O)O)c1ccc(O)cc1)C(CS)Cc1ccccc1 (stereo partly drawn) [Example 12, N-[2'-Benzyl-3'-mercaptopropionyl]-4-hydroxy-D-phenylglycine] showed an IC50 [1] of under 1000 nM and an MIC [2, 3] of over 128 µg/mL.
For COc1ccc(C(NC(=O)C(CS)Cc2ccccc2)C(=O)O)cc1 (stereo not drawn) [Example 13, N-[2'-Benzyl-3'-mercaptopropionyl]4-methoxyphenylglycine], the IC50 [1] was under 1000 nM and the MIC [2, 3] was over 128 µg/mL.
In the case of O=C(NC(C(=O)O)c1ccc(O)c([N+](=O)[O-])c1)C(CS)Cc1ccccc1 (stereo not drawn) [Example 14, N-[2'-Benzyl-3'-mercaptopropionyl]-4-hydroxy-3-nitrophenylglycine], the IC50 [1] is reported as under 1000 nM and the MIC [2, 3] is reported as over 128 µg/mL.
For O=C(N[C@@H](C(=O)O)c1ccc(O)c(O)c1)C(CS)Cc1ccccc1 (stereo partly drawn) [Example 15, N-[2'-Benzyl-3'-mercaptopropionyl]-3,4-dihydroxy-D-phenylglycine], the IC50 [1] was under 1000 nM.
O=C(N[C@@H](C(=O)O)c1ccc(F)cc1)C(CS)Cc1ccccc1 (stereo partly drawn) [Example 16, N-[2'-Benzyl-3'-mercaptopropionyl]-4-fluoro-D-phenylglycine] was tested, and the IC50 [1] was under 1000 nM.
Compound O=C(NC(C(=O)O)c1cccc(F)c1)C(CS)Cc1ccccc1 (stereo not drawn) [Example 17, N-[2'-Benzyl-3'-mercaptopropionyl]-3-fluorophenylglycine] has an IC50 [1] of under 1000 nM.
O=C(N[C@@H](C(=O)O)c1cccc([N+](=O)[O-])c1)C(CS)Cc1ccccc1 (stereo partly drawn) [Example 18, N-[2'-Benzyl-3'-mercaptopropionyl]-3-nitro-D-phenylglycine] gave an IC50 [1] of under 1000 nM.
O=C(NC(C(=O)O)c1ccccc1F)C(CS)Cc1ccccc1 (stereo not drawn) [Example 19, N-[2'-Benzyl-3'-mercaptopropionyl]-2-fluorophenylglycine] was tested, and the IC50 [1] was under 1000 nM and the MIC [2, 3] was over 128 µg/mL.
Compound O=C(NC(C(=O)O)c1cccs1)C(CS)Cc1ccccc1 (stereo not drawn) [Example 20, N-[2'-Benzyl-3'-mercaptopropionyl]-2-thienylglycine] has an IC50 [1] of under 1000 nM.
CC(CS)C(=O)N[C@@H](C(=O)O)c1ccccc1 (stereo partly drawn) [Example 22, N-[2'-Methyl-3'-mercaptopropionyl]-D-phenylglycine] was tested, and the IC50 [1] was under 1000 nM and the MIC [2, 3] was over 128 µg/mL.
For CC(C)CC(CS)C(=O)N[C@@H](C(=O)O)c1ccccc1 (stereo partly drawn) [Example 23, N-(4-Methyl-2-mercaptomethylpentanoyl]-D-phenylglycine], the IC50 [1] was under 1000 nM and the MIC [2, 3] was over 128 µg/mL.
Cc1ccc(C(NC(=O)C(CS)Cc2ccccc2)C(=O)O)cc1 (stereo not drawn) [Example 24, N-[2'-Benzyl-3'-mercaptopropionyl]-4-methylphenylglycine] showed an IC50 [1] of under 1000 nM and an MIC [2, 3] of over 128 µg/mL.
For Cn1cc(C(NC(=O)C(CS)Cc2ccccc2)C(=O)O)cn1 (stereo not drawn) [Example 25, N-[2'-Benzyl-3'-mercaptopropionyl]4-[1-methylisoiinidazolyl]glycine], the IC50 [1] was under 1000 nM.
CC(C)CC(C(=O)N[C@@H](C(=O)O)c1ccccc1)C(C)S (stereo partly drawn) [Example 27, N-[2'-Isobutyl-3'-mercaptobutanoyl]-D phenylglycine] was tested, and the IC50 [1] was under 1000 nM and the MIC [2, 3] was over 128 µg/mL.
For O=C(NC(C(=O)O)c1ccco1)C(CS)Cc1ccccc1 (stereo not drawn) [Example 30, N-[2'-Benzyl-3'-mercaptopropionyl]-2-(2"-furanyl)glycine], the IC50 [1] was under 1000 nM.
Compound O=C(NC(C(=O)O)c1cc2ccccc2s1)C(CS)Cc1ccccc1 (stereo not drawn) [Example 31, N-[2'-Benzyl-3'-mercaptopropionyl]-2-(2"-benzothienyl)glycine] has an IC50 [1] of under 1000 nM and an MIC [2, 3] of over 128 µg/mL.
O=C(NC(C(=O)O)c1ccoc1)C(CS)Cc1ccccc1 (stereo not drawn) [Example 32, N-[2'-Benzyl-3'-mercaptopropionyl]-2-(3"-furanyl)glycine] showed an IC50 [1] of under 1000 nM and an MIC [2, 3] of over 128 µg/mL.
Work on O=C(N[C@@H](C(=O)O)c1ccccc1)C(CS)CCCCc1ccccc1 (stereo partly drawn) [Example 39, N-[2'-Mercaptomethyl-6'-phenylhexanoyl]-D-phenylglycine] yielded an IC50 [1] of under 1000 nM.
For O=C(N[C@@H](C(=O)O)c1ccccc1)C(CS)C1CCc2ccccc21 (stereo partly drawn) [Example 41, N-[2'-(Indan-1-yl)-3'-mercaptopropanoyl]-D-phenylglycine], the IC50 [1] was under 1000 nM.
For O=C(N[C@@H](C(=O)O)c1ccccc1)C(CS)CCOc1ccccc1 (stereo partly drawn) [Example 42, N-[2'-Mercaptomethyl-4'-phenoxybutanoyl]-D-phenylglycine], the IC50 [1] was under 1000 nM.
For O=C(NC(C(=O)O)c1ccsc1)C(CS)Cc1ccccc1 (stereo not drawn) [Example 43, N-[2'-Benzyl-3'-mercaptopropionyl]-2-(3"-thienyl)glycine], the IC50 [1] was under 1000 nM and the MIC [2, 3] was over 128 µg/mL.
Work on CC(S)C(CCc1ccccc1)C(=O)N[C@@H](C(=O)O)c1ccccc1 (stereo partly drawn) [Example 44, N-[2'-(1"-Mercaptoethyl)-4'-phenylbutanoyl]-D-phenylglycine] yielded an IC50 [1] of under 1000 nM.
CCC(S)C(Cc1ccccc1)C(=O)N[C@@H](C(=O)O)c1ccccc1 (stereo partly drawn) [Example 49, N-[2-Benzyl-3-mercaptopentanoyl]-D-phenylglycine] was tested, and the MIC [2, 3] was over 128 µg/mL.
For O=C(N[C@@H](C(=O)O)c1ccccc1)C(Cc1ccccc1)C1(S)CC1 (stereo partly drawn) [Example 52, N-[2'-Benzyl-2'-(1"-mercaptocyclopropyl)acetyl]-D-phenylglycine], the MIC [2, 3] was over 128 µg/mL.
O=C(N[C@@H](C(=O)O)c1ccccc1)C(CS)CCc1ccc(OC(F)F)cc1 (stereo partly drawn) [Example 55, N-[2'-Mercaptomethyl-4'-(4"-difluoromethoxphenyl)butanoyl)-D-phenylglycine] was tested, and the IC50 [1] was under 1000 nM and the MIC [2, 3] was over 128 µg/mL.
In the case of C[C@@H](O)[C@H]1C(=O)N2C(C(=O)O)=C(S[C@@H]3CN[C@H](C(=O)N(C)C)C3)[C@H](C)[C@H]12 [meropenem, reference compound], the MIC ([2]; read-out: MIC (μg/ml) of meropenem alone) is reported as over 128 µg/mL.
